Test results as given in patent publication US9545416B2 (Universite de Montreal, priority 2011, dated 2017).
“Also recorded” adds a separate entry of the source. Like-named read-outs stand apart in the source and are kept apart here.

What was measured:
[1] = test system: FaDu and THP1 cells and resistant F10R, F100R, T10R, T20R cell lines; experiment: Uptake of 3H-ribavirin in parental and resistant cell lines; type: cell-based; conditions: 0 to 16 hours
[2] = test system: Gli-1 mRNA; experiment: Gli-1 mRNA levels in patient specimens (qRT-PCR); type: in vivo, human; conditions: two patients that did not respond (PD)
From the text: For responding patients, in all cases Gli-1 mRNA levels were higher at resistance than during response.
The molecular features identified in present studies were examined to determine whether they were relevant to specimens from patients that received ribavirin monotherapy in the multi-centre phase II AML trial. For responding patients, all available specimens before treatment were monitored, during clinical response, upon the onset of relapse and in non-responders when possible. A total of ten specimens were examined including those from patients that enrolled in the monotherapy trial. Results from the trial, when closed, were 1 CR, 2 PR, 3 BR, 6 SD, 3 PD with 15 evaluable patients (Clinicaltrials.gov). Of these, samples from 10 patients were available for evaluation of molecular response. […] Gli-1 mRNA levels were monitored using qRT-PCR. […] (See above table).

[3] = target: T1, eIF4E gene product (Homo sapiens, UniProt P06730); experiment: Molecular analysis of eIF4E gene product activity in trial patients; type: in vivo; conditions: after 28 days of oral ribavirin, monotherapy trial
T1 construct: from tissue; host or cells: leukemia specimens of AML patients in the clinical trials
T1 sequence (P06730 whole entry): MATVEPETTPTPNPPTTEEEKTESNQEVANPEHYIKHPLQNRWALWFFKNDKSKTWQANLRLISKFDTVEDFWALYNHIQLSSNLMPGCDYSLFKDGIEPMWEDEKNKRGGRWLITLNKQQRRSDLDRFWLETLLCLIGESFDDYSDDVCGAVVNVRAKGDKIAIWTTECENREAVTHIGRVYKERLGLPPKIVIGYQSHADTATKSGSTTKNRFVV
From the text: In terms of clinical response, 1 CR (complete remission), 2 PR (partial remission), 3 BR (blast response), 6 SD (stable disease), 3PD (progressive disease) were observed out of 15 evaluable patients. […] A biphasic molecular response was observed, where initially the eIF4E gene product was dramatically re-distributed to the cytoplasm in patients that responded. This was followed by a drop in eIF4E RNA and protein levels (up to one 28 day cycle).

[4] = test system: cyclin D1 and VEGF; experiment: Protein levels of eIF4E export and translation targets as a function of ribavirin treatment; type: cell-based
[5] = test system: ENT1; experiment: ENT1 RNA levels in patients (RT-qPCR); type: in vivo, human; conditions: Patient 10 (BR), four cycles
From the text: Results from RT-qPCR are normalised against multiple genes to ensure no changes in the normalised occurred as described.

[6] = test system: Gli-1 overexpressing cells; experiment: Cell number assay, Gli-1 overexpressing FaDu cells; type: cell-based; conditions: 20 μM ribavirin
Experimental: (§1) (FIG. 6). Gli-1 knockdown experiments were performed in parallel.

[7] = target: T2, eIF4E (Homo sapiens, UniProt P06730); experiment: Immunoprecipitation of labelled (3H/14C) ribavirin with eIF4E in living cells; type: binding
T2 construct: endogenous in cells; host or cells: parental FaDu, F10R and F100R resistant cells
Experimental: In total, it appears that these AML specimens have developed an “oncogene addiction” to eIF4E making them more sensitive to inhibition of eIF4E than specimens with normal eIF4E levels.
It was determined whether ^14C-ribavirin could immunoprecipitate with eIF4E in the F10R and F100R resistant cell lines.
Cells were treated for 24 hours with ^14C-ribavirin followed by cross-linking and immunoprecipitation and evaluated relative to IgG controls.

[8] = test system: MDR1; experiment: MDR1 levels in patients; type: in vivo, human; conditions: Patient 10 (BR), four cycles
[9] = test system: Parental FaDu cells; experiment: Cell number / growth assay, parental FaDu cells; type: cell-based
Experimental: as §1

[10] = test system: ENT1, ADK or Gli-1 levels; experiment: Deep sequencing of 10R cells during ribavirin treatment; type: cell-based
From the text: All deep sequencing in resistant cells is done in the absence of ribavirin.

[11] = test system: relapsed/refractory M4/M5 AML
From the text: The molecular features identified in present studies were examined to determine whether they were relevant to specimens from patients that received ribavirin monotherapy in the multi-centre phase II AML trial. For responding patients, all available specimens before treatment were monitored, during clinical response, upon the onset of relapse and in non-responders when possible. A total of ten specimens were examined including those from patients that enrolled in the monotherapy trial. […] Of these, samples from 10 patients were available for evaluation of molecular response. […] Gli-1 mRNA levels were monitored using qRT-PCR.

[12] = test system: F10R cells; experiment: Cell number / growth assay, F10R resistant cells; type: cell-based
Experimental: as §1

[13] = test system: FaDu and THP1 cells and resistant F10R, F100R, T10R, T20R cell lines; conditions: previous studies; cited from earlier work
[14] = reported according to Roche; cited from earlier work
[15] = test system: F100R cells; experiment: Cell growth assay, type 1 resistant F100R cells; type: cell-based; conditions: GDC-0449, type 1 resistant F100R cells

In the case of `NC(=O)c1ncn([C@@H]2O[C@H](CO)[C@@H](O)[C@H]2O)n1` [ribavirin, 1-[(2R,3R,4S,5R)-3,4-dihydroxy-5-(hydroxymethyl)oxolan-2-yl]-1H-1,2,4-triazole-3-carboxamide], the 3H-ribavirin uptake ([1]; F10R cells) is reported as “indistinguishable from parental FaDu cells”, the 3H-ribavirin uptake ([1]; F100R, T10R and T20R cell lines) is reported as “severe defects in ribavirin uptake” and the “Gli-1 levels after 28 days of ribavirin” value [2] is reported as “not lowered”. The “mRNA export activity of the eIF4E gene product” value [3] was “substantially reduced”, the “protein levels of cyclin D1 and VEGF” value ([4]; parental cell lines) was “reduces levels of these proteins” and the “protein levels of cyclin D1 and VEGF” value ([4]; resistant cell lines) was “no longer affects these”. The “reduction in ENT1 levels at relapse” value [5] was 3 fold, the “cell number as % of the untreated Gli-1 overexpressing cells” value [6] was 95% and the “immunoprecipitation of 14C ribavirin with eIF4E” value ([7]; F10R cell line) was “does not immunoprecipitate with eIF4E; also recorded: did not immunoprecipitate”. The “immunoprecipitation of 14C ribavirin with eIF4E” value ([7]; F100R cell line) was “does not immunoprecipitate with eIF4E”, the “increase in MDR1 at relapse” value [8] was 17 fold and the “decrease in cell number” value ([9]; 10 μM ribavirin for 96 hours) was “about 50%”. For the same molecule, the “reduction of cell number” value ([9]; 20 μM ribavirin) was 50%, the “ENT1, ADK or Gli-1 levels on addition of ribavirin” value [10] was “did not alter” and the “number of patients with BR (blast response)” value ([11]; out of 15 evaluable patients) was 3. For the same molecule, the “number of patients with CR (complete remission)” value ([11]; out of 15 evaluable patients) was 1, the “number of patients with PD (progressive disease)” value ([11]; out of 15 evaluable patients) was 3 and the “number of patients with PR (partial remission)” value ([11]; out of 15 evaluable patients) was 2. For the same molecule, the “number of patients with SD (stable disease)” value ([11]; out of 15 evaluable patients) was 6, the drop in blasts ([11]; patient 18 (SD), during response) was 20% and the “cell numbers as % of the same cells without ribavirin” value ([12]; 20 μM ribavirin, RNAi knockdown of Gli-1 in F10R cells) was “about 50%”. For the same molecule, the growth ([12]; 20 μM ribavirin, siRNA luciferase treated F10R cells) was “unaffected”, the “time of maximal uptake after ribavirin treatment” value [13] was 8 to 10 h and the “change of plasma ribavirin levels” value (CR patient of combination trial after Ara-C lowered to 10 mg/day) was “near doubling”. The ribavirin plasma levels (combination trial with subcutaneous low dose Ara-C) was 4 to 10 µM, the ribavirin plasma levels (monotherapy trial, 2000 mg/day) was 20 to 30 µM and the ribavirin plasma levels (monotherapy trial, 2800 mg/day) was 20 µM.
In the case of `CS(=O)(=O)c1ccc(C(=O)Nc2ccc(Cl)c(-c3ccccn3)c2)c(Cl)c1` [GDC-0449], the plasma levels [14] is given as 3 nM, the “ribavirin binding to eIF4E after GDC-0449 treatment” value ([7]; F10R cells) is given as “increase in ribavirin binding to eIF4E” and the reduction in growth ([9]; 3 nM GDC-0449 alone) is given as 25%. For the same molecule, the growth ([12]; 3 nM GDC-0449 alone, F10R cells) was “did not affect” and the growth [15] was “no effect”.
